Experimental data from BindingDB's records for patent US20240034729 (Wuhan Ll Science and Technology Development, 2024).

Each compound was assayed against T1, P2X purinoceptor 3 (Homo sapiens, UniProt P56373) (assay: Evaluation of In Vitro Biological Activity).
T1 sequence (P56373 whole entry): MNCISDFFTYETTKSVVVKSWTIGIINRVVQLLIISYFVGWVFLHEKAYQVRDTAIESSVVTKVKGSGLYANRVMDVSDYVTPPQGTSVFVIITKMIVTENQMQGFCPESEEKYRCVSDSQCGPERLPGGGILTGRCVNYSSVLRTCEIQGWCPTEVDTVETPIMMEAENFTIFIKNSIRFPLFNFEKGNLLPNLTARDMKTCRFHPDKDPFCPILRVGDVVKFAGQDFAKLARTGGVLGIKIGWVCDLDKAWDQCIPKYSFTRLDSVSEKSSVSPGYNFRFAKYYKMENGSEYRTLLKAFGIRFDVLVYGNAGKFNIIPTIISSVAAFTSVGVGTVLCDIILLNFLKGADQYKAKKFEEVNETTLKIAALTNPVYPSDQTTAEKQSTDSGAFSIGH
Method: Each well was added with 10 μL of test compound (which was dissolved in DMSO at a concentration of 10 mM and serially diluted with buffer) or vehicle, and then was left to equilibrate for 30 min at room temperature.

Structure (SMILES)	IC50
COC(=O)N1CCO[C@@H](Cc2c(-c3c(F)cc(C#N)cc3F)nc3cc(C)ccn23)C1 [US20240034729, Compound 6]	< 1000 nM
COC(=O)N1CCO[C@@H](Cc2c(-c3c(F)cc(-c4ncccn4)cc3F)nc3cc(C)ccn23)C1 [US20240034729, Compound 18]	< 1000 nM
COC(=O)N1CCO[C@@H](Cc2c(-c3c(F)cc(NC(=O)/C=C/C(N)=O)cc3F)nc3cc(C)ccn23)C1 [US20240034729, Compound 29]	< 10 nM
CCC(=O)N1CCO[C@@H](Cc2c(-c3c(F)cc(-c4ncc[nH]4)cc3F)nc3cc(C)ccn23)C1 [US20240034729, Compound 52]	< 10 nM
COC(=O)N1CCO[C@@H](Cc2c(-c3c(F)cc(-n4cnnn4)cc3F)nc3cc(C)ccn23)C1 [US20240034729, Compound 58]	< 10 nM
COC(=O)N1CCO[C@@H](Cc2c(-c3c(F)cc(-c4nc(C5(C(=O)O)CC5)c[nH]4)cc3F)nc3cc(C)ccn23)C1 [US20240034729, Compound 59]	< 10 nM
COC(=O)N1CCO[C@@H](Cc2c(-c3c(F)cc(CC(N)=O)cc3F)nc3cc(C)ccn23)C1 [US20240034729, Compound 63]	< 1000 nM
COC(=O)N1CCO[C@@H](Cc2c(-c3c(F)cc(NC4CCC(=O)C4)cc3F)nc3cc(C)ccn23)C1 (some centres undefined) [US20240034729, Compound 79]	< 100 nM
COC(=O)N1CCO[C@@H](Cc2c(-c3c(F)cc(NC(=O)C4(C#N)CC4)cc3F)nc3cc(C)ccn23)C1 [US20240034729, Compound 89]	< 100 nM
COC(=O)N1CCO[C@@H](Cc2c(-c3c(F)cc(NC(=O)C4(C(=O)OC)CC4)cc3F)nc3cc(C)ccn23)C1 [US20240034729, Compound 97]	< 1000 nM
COC(=O)N1CCO[C@@H](Cc2c(-c3c(F)cc(-c4nn[nH]n4)cc3F)nc3cc(C)ccn23)C1 [US20240034729, Compound 104]	< 1000 nM
COC(=O)N1CCO[C@@H](Cc2c(-c3c(F)cc(-n4cnc(C(N)=O)c4)cc3F)nc3cc(C)ccn23)C1 [US20240034729, Compound 110]	< 100 nM
COC(=O)N1CCO[C@@H](Cc2c(-c3c(F)cc(-c4nc(C(C)(C)O)co4)cc3F)nc3cc(C)ccn23)C1 [US20240034729, Compound 119]	< 100 nM
COC(=O)N1CCO[C@@H](Cc2c(-c3c(F)cc(-c4nc(C5(C(N)=O)CC5)c[nH]4)cc3F)nc3cc(C)ccn23)C1 [US20240034729, Compound 133]	< 100 nM
COC(=O)N1CCO[C@@H](Cc2c(-c3c(F)cc(-c4nc(C5(C#N)CC5)c[nH]4)cc3F)nc3cc(C)ccn23)C1 [US20240034729, Compound 144]	< 100 nM
COC(=O)N1CCO[C@@H](Cc2c(-c3c(F)cc(-c4ccc(C(N)=O)cn4)cc3F)nc3cc(C)ccn23)C1 [US20240034729, Compound 146]	< 1000 nM
COC(=O)N1CCO[C@@H](Cc2c(-c3c(F)cc(-c4ccc(O)cn4)cc3F)nc3cc(C)ccn23)C1 [US20240034729, Compound 147]	< 100 nM
CCC(=O)c1ccn(-c2cc(F)c(-c3nc4cc(C)ccn4c3C[C@H]3CN(C(=O)OC)CCO3)c(F)c2)n1 [US20240034729, Compound 164]	< 100 nM
COC(=O)N1CCO[C@@H](Cc2c(-c3c(F)cc(N4CC=CC4=O)cc3F)nc3cc(C)ccn23)C1 [US20240034729, Compound 169]	< 10 nM
